Assay results from the supplement of paper PMC4862054.

Assays:
Test in all cases: normalised viability (% of control), CellTiter-Blue; higher = more viable cells (about 100 = DMSO control)
HCC1599 = details: incubation time: 72 h
Method in brief: (§1)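 Vehicle (100) and a positive kill control (0) anchored the normalisation of each plate, and Z'-factor was used for quality control. Breast cancer cell lines in 20 µl suspension were incubated 72 h over compound in 5 µl medium in 384-well plates, followed by CellTiter-Blue at 560/590 nm. The value is normalised viability at a single listed concentration of the series.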

Hs578T [1] = details: incubation time: 72 h
Method in brief: as §1

SK-BR-3 [2] = details: incubation time: 72 h
Method in brief: as §1

MFM-223 [3] = details: incubation time: 72 h
Method in brief: as §1

DU-4475 = details: incubation time: 72 h
Method in brief: as §1

CAL-51 = details: incubation time: 72 h
Method in brief: as §1

MDA-MB-453 [4] = details: incubation time: 72 h
Method in brief: as §1

MDA-MB-468 [5] = details: incubation time: 72 h
Method in brief: as §1

HCC1937 = details: incubation time: 72 h
Method in brief: as §1

MDA-MB-231 [6] = details: incubation time: 72 h
Method in brief: as §1

MDA-MB-436 [7] = details: incubation time: 72 h
Method in brief: as §1

CAL-148 = details: incubation time: 72 h
Method in brief: as §1

HCC1143 = details: incubation time: 72 h
Method in brief: as §1

CAL-120 = details: incubation time: 72 h
Method in brief: as §1

HDQ-P1 [8] = details: incubation time: 72 h
Method in brief: as §1

BT-474 [9] = details: incubation time: 72 h
Method in brief: as §1

BT-549 = details: incubation time: 72 h
Method in brief: as §1

CAL-85-1 = details: incubation time: 72 h
Method in brief: as §1

Hs578T [10] = details: 100 nM; incubation time: 72 h
Procedure: (§2)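 DSRT, CellTiter-Blue viability, 72 h incubation. Signal is normalised to DMSO and benzethonium chloride controls. Value is the normalised response at dose 3.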

SK-BR-3 [11] = details: 100 nM; incubation time: 72 h
Procedure: as §2

MFM-223 [12] = details: 100 nM; incubation time: 72 h
Procedure: as §2

MDA-MB-453 [13] = details: 10 nM; incubation time: 72 h
Procedure: as §2

MDA-MB-468 [14] = details: 100 nM; incubation time: 72 h
Procedure: as §2

MDA-MB-231 [15] = details: 100 nM; incubation time: 72 h
Procedure: as §2

MDA-MB-436 [16] = details: 100 nM; incubation time: 72 h
Procedure: as §2

HDQ-P1 [17] = details: 10 nM; incubation time: 72 h
Procedure: as §2

BT-474 [18] = details: 100 nM; incubation time: 72 h
Procedure: as §2

CCCC(CCC)C(=O)O [Valproic acid]
normalised viability [%]
Details | 3 nM | 10 nM | 30 nM | 100 nM | 1000 nM | 10000 nM
BT-474 [9] | – | 113 | – | – | 124 | 121
BT-549 | – | 78.7 | – | – | 93.1 | 86.2
CAL-51 | 104 | – | 95.1 | 96.5 | – | –
CAL-85-1 | 86.4 | – | 84.7 | 96.6 | – | –
CAL-120 | – | 104 | – | – | 104 | 93.9
CAL-148 | 99.9 | – | 97.9 | 109 | – | –
DU-4475 | 88.6 | – | 81.7 | 76.3 | – | –
HCC1143 | – | 110 | – | – | 104 | 94.4
HCC1599 | – | 97.4 | – | – | 90.7 | 82
HCC1937 | – | 126 | – | – | 86 | 92.6
HDQ-P1 [8] | 124 | – | 116 | 122 | – | –
Hs578T [1] | – | 110 | – | – | 140 | 127
MDA-MB-231 [6] | – | 109 | – | – | 101 | 116
MDA-MB-436 [7] | – | 96.6 | – | – | 89 | 132
MDA-MB-453 [4] | 112 | – | 102 | 109 | – | –
MDA-MB-468 [5] | – | 105 | – | – | 117 | 121
MFM-223 [3] | – | 103 | – | – | 87.2 | 97.3
SK-BR-3 [2] | – | 102 | – | – | 107 | 95.9

Details | normalised viability [%]
BT-474 [18] | 113
HDQ-P1 [17] | 139
Hs578T [10] | 111
MDA-MB-231 [15] | 110
MDA-MB-436 [16] | 95.4
MDA-MB-453 [13] | 94.4
MDA-MB-468 [14] | 115
MFM-223 [12] | 94.9
SK-BR-3 [11] | 95

O=c1[nH]cc(F)c(=O)[nH]1 [Fluorouracil]
normalised viability [%]
Details | 3 nM | 10 nM | 30 nM | 100 nM | 1000 nM | 10000 nM
BT-474 [9] | – | 108 | – | – | 108 | 94
BT-549 | – | 101 | – | – | 90.3 | 74.2
CAL-51 | 105 | – | 100 | 92.9 | – | –
CAL-85-1 | 105 | – | 101 | 115 | – | –
CAL-120 | – | 114 | – | – | 95.8 | 54.9
CAL-148 | 111 | – | 109 | 103 | – | –
DU-4475 | 120 | – | 103 | 85.6 | – | –
HCC1143 | – | 99.5 | – | – | 91 | 64.9
HCC1599 | – | 102 | – | – | 96.1 | 76.9
HCC1937 | – | 90.6 | – | – | 112 | 75.3
HDQ-P1 [8] | 105 | – | 114 | 99.9 | – | –
Hs578T [1] | – | 111 | – | – | 106 | 55.6
MDA-MB-231 [6] | – | 104 | – | – | 97.5 | 64.7
MDA-MB-436 [7] | – | 103 | – | – | 87.8 | 73.5
MDA-MB-453 [4] | 113 | – | 106 | 99.1 | – | –
MDA-MB-468 [5] | – | 99.4 | – | – | 103 | 76
MFM-223 [3] | – | 106 | – | – | 98.5 | 94.3
SK-BR-3 [2] | – | 108 | – | – | 62.4 | 43.1

Details | normalised viability [%]
BT-474 [18] | 116
HDQ-P1 [17] | 103
Hs578T [10] | 115
MDA-MB-231 [15] | 106
MDA-MB-436 [16] | 89.1
MDA-MB-453 [13] | 116
MDA-MB-468 [14] | 104
MFM-223 [12] | 96.5
SK-BR-3 [11] | 87

CN1CCN(c2ccc3nc(-c4c(N)c5c(F)cccc5[nH]c4=O)[nH]c3c2)CC1 [Dovitinib]
normalised viability [%]
Details | 3 nM | 10 nM | 30 nM | 100 nM | 1000 nM | 10000 nM
BT-474 [9] | – | 111 | – | – | 97.4 | 121
BT-549 | – | 83 | – | – | 97.1 | 89
CAL-51 | 119 | – | 113 | 107 | – | –
CAL-85-1 | 85.3 | – | 86.4 | 97.5 | – | –
CAL-120 | – | 88.3 | – | – | 91.8 | 83.7
CAL-148 | 91.6 | – | 95.5 | 89.6 | – | –
DU-4475 | 94.3 | – | 85.5 | 89.4 | – | –
HCC1143 | – | 86.9 | – | – | 87.9 | 69.8
HCC1599 | – | 98 | – | – | 98.8 | 89
HCC1937 | – | 116 | – | – | 80.7 | 76.9
HDQ-P1 [8] | 91 | – | 93.3 | 88.3 | – | –
Hs578T [1] | – | 106 | – | – | 99.3 | 96
MDA-MB-231 [6] | – | 96.1 | – | – | 75.2 | 86.4
MDA-MB-436 [7] | – | 86.7 | – | – | 97 | 81.1
MDA-MB-453 [4] | 114 | – | 82.3 | 84 | – | –
MDA-MB-468 [5] | – | 104 | – | – | 90.6 | 72.6
MFM-223 [3] | – | 80.5 | – | – | 56.4 | 61
SK-BR-3 [2] | – | 84.8 | – | – | 94.8 | 72.9

Details | normalised viability [%]
BT-474 [18] | 115
HDQ-P1 [17] | 95.7
Hs578T [10] | 87
MDA-MB-231 [15] | 80.2
MDA-MB-436 [16] | 99.7
MDA-MB-453 [13] | 87.7
MDA-MB-468 [14] | 86.9
MFM-223 [12] | 80.2
SK-BR-3 [11] | 101
